Data set [1] can be described thus: Particle size distribution using a Malvern instrument. The class given is physicochemical. The source says: The D10, D50, and D90 values are useful ways for indicating a particle size distribution. D90 is the size value where at least 90 volume percent of the particles have a size smaller than the said value; Likewise D10 refers to 10 volume percent of the particles having a size smaller than the said value. D50 refers to at least 50 volume percent of the particles having a size smaller than the said value and D[4,3] value refers to the mean particle size. Methods for determining D10, D50 D90 and D[4,3] include laser light diffraction, such as using equipment sold by Malvern Instruments Ltd., Malvern, Worcestershire, United Kingdom. Other types of equipment may be used, as is known in the art.
The premixes of Example 1 and Example 2 are analyzed for particle size distribution using a Malvern instrument and the results are below: […]

Data set [2] in a line: Glass transition temperature (Tg) by differential scanning calorimetry. Type of data set: physicochemical. On the procedure:
The glass transition temperature (Tg) is determined for premixes using differential scanning calorimetry and the results are below:
The glass transition temperatures of the premix compositions are greater than that of dexlansoprazole (amorphous).
In general terms: Differential scanning calorimetry records heat flow against a reference as temperature is scanned.

The source of these data is US20120231073A1, “DEXLANSOPRAZOLE COMPOSITIONS” (DR. REDDY'S LABORATORIES, INC., priority 2008, published 2012).

Molecules are shown by their SMILES.

In data set [1], `Cc1c(OCC(F)(F)F)ccnc1C[S@@+]([O-])c1nc2ccccc2[nH]1` [Amorphous dexlansoprazole, (+)-2-[(R)-{[3-methyl-4-(2,2,2-trifluoroethoxy)pyridin-2-yl]methyl}sulfinyl]-1H-benzimidazole] came in with a D10 of 9.061 μm, a D50 of 22.182 μm and a D90 of 42.598 μm. In data set [2], the “Tg (glass transition temperature)” value was 55.48 °C.
